How the values were obtained:
[1] = system: pulmonary infiltration of eosinophils; assay: Inhibition of the late phase eosinophilia 24 h after challenge of actively sensitized guinea pigs by ovalbumin inhalation; format: in vivo, Dunkin-Hartley guinea pigs; details: 10 mg/kg i.p. 2 h before challenge, bronchoalveolar lavage 24 h after ovalbumin challenge; for Eosinophils B = eosinophils in the substance-treated group with ovalbumin challenge: mean
Description: The inhibition of the pulmonary infiltration of eosinophils by the substances is examined in an in vivo test on Dunkin-Hartley guinea pigs which have been actively sensitized against ovalbumin. The sensitization is effected by two subcutaneous injections of a suspension of 10 μg of ovalbumin together with 1 mg of aluminium hydroxide in 0.5 m of physiological saline as adjuvant at an interval of 14 days. 7 days after the second injection, the animals in the control group which are to be exposed to an ovalbumin aerosol are pretreated with mepyramine maleate (10 mg/kg i.p.) in order to protect from anaphylactic death. After 30 minutes, the animals are exposed in a plastic box for 30 sec to an ovalbumin aerosol (0.5 mg/m ) which is produced by an atomizer driven by compressed air (19.6 kPa). Control animals are exposed to an aerosol of physiological saline. 24 hours after the exposure to ovalbumin aerosol (challenge) the animals are anaesthetized with an overdose of ethylurethane (1.5 g/kg of body weight i.p.), and a bronchoalveolar lavage is carried out with 2×5 m of physiological saline. The lavage fluid is collected and centrifuged at 300 rpm for 10 min, and then the cell pellet is resuspended in 1 m of physiological saline. The eosinophils are stained using the Becton-Dickinson test kit (N.5877) for eosinophils and are counted in a Neubauer chamber. Each test includes 2 control groups (exposure to a physiological saline aerosol and exposure to an ovalbumin solution aerosol).
The test substances are administered intraperitoneally or orally as suspension in 10% polyethylene glycol 300 and 0.5% strength 5-hydroxyethylcellulose 2 hours before the allergen challenge. The control groups are treated with the vehicle in a form corresponding to the administration of the test substance. The number of animals in each control and test group is 3-10.

[2] = system: IL-2 release from Jurkat cells; assay: Inhibition of IL-2 release from Jurkat cells; format: cell-based; details: Homo sapiens; Jurkat cells stimulated with ionomycin/PMA, IL-2 ELISA of supernatants
Description: (§1) To determine the effect of the compounds according to the invention on the said cytokines, the inhibition of the release of IL-2,IL-4 and IL-5 from T cells was investigated in vitro.
Jurkat cells (clone E6-1, batch F-12871, from ATCC, Rockville, Md.) are seeded at about 100,000 cells in 50μ per well in microtitre plates and preincubated in an incubator (5% CO2/37° C./100% humidity). The medium employed is RPMI-1640 with HEPES/10% FCS/2 mM glutamine/100 U/m penicillin/100 mg/m streptomycin and 50 μM mercaptoethanol. After 3 hours, the substances to be tested are applied in various concentrations (100μ per well). To determine the spontaneous value and maximum values, in each case only medium/0.2% DMSO is applied. 30 minutes after application of substance and incubation, stimulation is carried out with in each case 25μ of ionomycin (final concentration 1 μM, Sigma I-0634) and phorbol myristate acetate (PMA, final concentration 25 ng/m, Sigma P-8139) per well. The spontaneous value receives 50μ of medium in place of ionomycin/PMA. Incubation overnight is then carried out. The supernatants are measured undiluted in an IL-2 ELISA (Pharmingen, capture mab: 18951 D detection mab: 20672 D). The IC50 determination was analysed by a logit-log plot.

[3] = system: IL-4 release from D10.G4.1 cells; assay: Inhibition of IL-4 release from D10.G4.1 cells (D10); format: cell-based; details: D10 cells stimulated with anti-CD3 antibody, IL-4 ELISA of supernatants
Description: as §1
3 days after thawing and cultivating D10 cells in medium (RPMI-1640 with HEPES/10% FCS/2 mM glutamine/100 U/m penicillin/100 mg/m streptomycin and 50 μM mercaptoethanol) with Rat Stim™ (Collaborative Biomedical Products, Bedford Mass.) they are spun down, washed with medium without Rat Stim™, seeded at a concentration of 40,000 to 60,000 cells per well in a microtitre plate and incubated at 37° C./5% CO2/100% humidity for 3.5 hours. The substances to be tested are then applied in various concentrations in each case 50μ per well. The determinations of the maximum value and spontaneous value each receive 50μ of medium/0.4% DMSO.
After a further 30 minutes of incubation, stimulation is carried out with in each case 50μ of anti-CD3 antibody (145-2C11, Cedarlane Laboratories Limited, Hornby/Ontario) per well (final dilution 1:100). The determination of the spontaneous value receives 50μ of medium. After incubation overnight, the supernatants are measured in an IL-4 ELISA (Pharmingen: capture mab: 18031D; detection mab: 18042 D). The IC50 determination was analysed by a logit-log plot.

[4] = system: IL-5 release from D10.G4.1 cells; assay: Inhibition of IL-5 release from D10.G4.1 cells (D10); format: cell-based; details: D10 cells stimulated with anti-CD3 antibody, IL-5 ELISA of supernatants
Description: as §1
3 days after thawing and cultivating D10 cells in medium (RPMI-1640 with HEPES/10% FCS/2 mM glutamine/100 U/m penicillin/100 mg/m streptomycin and 50 μM mercaptoethanol) with Rat Stirm™ (Collaborative Biomedical Products, Bedford Mass.) they are spun down, washed with medium without Rat Stim™, seeded at a concentration of 40,000 to 60,000 cells per well in a microtitre plate and incubated at 37° C./5% CO2/100% humidity for 3.5 hours. The substances to be tested are then applied in various concentrations in each case 50μ per well. The determinations of the maximum value and spontaneous value each receive 50μ d of medium/0.4% DMSO. After a further 30 minutes of incubation, stimulation is carried out with in each case 50μ of anti-CD3 antibody (145-2C11, Cedarlane Laboratories Limited, Hornby/Ontario) per well (final dilution 1:100). The determination of the spontaneous value receives 50μ of medium. After incubation overnight, the supernatants are measured in an IL-5 ELISA (Pharmingen: capture mab: 18051D; detection mab: 18062 D). The IC50 determination was analysed by a logit-log plot.

Row | IC50 [4] | melting point | SMILES | further results
1 | – | > 350 °C | Cc1c(O)cc2c(c1O)C(=O)c1c(O)c3c(c(O)c1C2=O)-c1c(cc2cnn(-c4ccccn4)c(=O)c2c1O)CC3 [Compound 9, 2-(2-Pyridyl)-8,10,12,15,16-pentahydroxy-11-methyl-9,14-dioxo-6,7,9,14-tetrahydronaphthaceno[1,2-g]phthalazin-1-one] | –
2 | – | > 350 °C | Cc1c(O)cc2c(c1O)C(=O)c1c(O)c3c(c(O)c1C2=O)-c1c(cc2cnn(-c4ccccc4)c(=O)c2c1O)CC3 [Compound 10, 2-Phenyl-8,10,12,15,16-pentahydroxy-11-methyl-9,14-dioxo-6,7,9,14-tetrahydronaphthaceno[1,2-g]phthalazin-1-one] | –
3 | – | 285 °C | CCOC(Cn1ncc2cc3c(c(O)c2c1=O)-c1c(O)c2c(c(OC)c1CC3)C(=O)c1c(cc(O)c(C)c1O)C2=O)OCC [Compound 11, 2-(2,2-Diethoxyethyl)-10,12,15,16-tetrahydroxy-8-methoxy-11-methyl-9,14-dioxo-6,7,9,14-tetrahydronaphthaceno[1,2-g]phthalazin-1-one] | –
4 | – | > 350 °C (dec.) | COc1c2c(c(O)c3c1C(=O)c1c(cc(O)c(C)c1O)C3=O)-c1c(cc3cnn(-c4ncc[nH]4)c(=O)c3c1O)CC2 [Compound 15, 2-(2-Imidazolyl)-10,12,15,16-tetrahydroxy-8-methoxy-11-methyl-9,14-dioxo-6,7,9,14-tetrahydronaphthaceno[1,2-g]phthalazin-1-one] | –
5 | 520 nM | – | COc1c2c(c(O)c3c1C(=O)c1c(cc(O)c(C)c1O)C3=O)-c1c(cc3cnn(-c4ccccn4)c(=O)c3c1O)CC2 [Compound 16, 2-(2-Pyridyl)-10,12,15,16-tetrahydroxy-8-methoxy-11-methyl-9,14-dioxo-6,7,9,14-tetrahydronaphtbaceno[1,2-g]phthalazin-1-one] | –
6 | – | 163 °C | C=CCc1cc2c(c(O)c1C)C(=O)c1c(OC)c3c(c(O)c1C2=O)-c1c(cc2cnn(-c4ccccc4)c(=O)c2c1O)CC3 [Compound 17, 2-Phenyl-12-allyl-10,15,16-trihydroxy-8-methoxy-11-methyl-9,14-dioxo-6,7,9,14-tetrahydronaphthaceno[1,2-g]phthalazin-1-one] | –

The next lines start with the compound.

Row | SMILES | IC50 [4] | melting point | further results
7 | COc1c2c(c(O)c3c1C(=O)c1c(cc(O)c(C)c1O)C3=O)-c1c(cc3cn[nH]c(=O)c3c1O)CC2 [Compound 1, 10,12,15,16-Tetrahydroxy-8-methoxy-11-methyl-9,14-dioxo-6,7,9,14-tetrahydronaphthaceno[1,2-g]phthalazin-1-one] | 450 nM | – | Inhibition (of late phase eosinophilia) [1]: 112.4; Eosinophils B = eosinophils in the substance-treated group with ovalbumin challenge [1]: 0.51 10^6/animal; IC50 [2]: 80 nM; IC50 [3]: 860 nM
8 | COc1c2c(c(O)c3c1C(=O)c1c(O)cc(O)cc1C3=O)-c1c(cc3c(C)nn(C)c(=O)c3c1O)CC2 [Compound 2, 2-Methyl-10,12,15,16-tetrahydroxy-8-methoxy-1-methyl-9,14-dioxo-6,7,9,14-tetrahydronaphthaceno[1,2-g]phthalazin-1-one] | 880 nM | – | IC50 [3]: 1460 nM
9 | CCCn1ncc2cc3c(c(O)c2c1=O)-c1c(O)c2c(c(OC)c1CC3)C(=O)c1c(cc(O)c(C)c1O)C2=O [Compound 3, 2-Propyl-10,12,15,16-tetrahydroxy-8-methoxy-11-methyl-9,14-dioxo-6,7,9,14-tetrahydronaphthaceno[1,2-g]phthalazin-1-one] | – | 350 to 351 °C | IC50 [3]: 2910 nM
10 | COc1c2c(c(O)c3c1C(=O)c1c(cc(O)c(C)c1O)C3=O)-c1c(cc3cnn(CCO)c(=O)c3c1O)CC2 [Compound 4, 2-(2-Hydroxyethyl)-10,12,15,16-tetrahydroxy-8-methoxy-11-methyl-9,14-dioxo-6,7,9,14-tetrahydronaphthaceno[1,2-g]phthalazin-1-one] | – | > 300 °C | –
11 | COc1c2c(c(O)c3c1C(=O)c1c(cc(O)c(C)c1O)C3=O)-c1c(cc3cnn(-c4ccccc4)c(=O)c3c1O)CC2 [Compound 5, 2-phenyl-10,12,15,16-tetrahydroxy-8-methoxy-11-methyl-9,14-dioxo-6,7,9, 14-tetrahydronaphthaceno[1,2-g]phthalazin-1-one] | 430 nM | – | Inhibition (of late phase eosinophilia) [1]: 85.0; Eosinophils B = eosinophils in the substance-treated group with ovalbumin challenge [1]: 0.85 10^6/animal; IC50 [2]: 200 nM
12 | COc1c2c(c(O)c3c1C(=O)c1c(cc(O)c(C)c1O)C3=O)-c1c(cc3cnn(CCOC(C)=O)c(=O)c3c1O)CC2 [Compound 6, 2-(2-Acetoxyethyl)-10,12,15,16-tetrahydroxy-8-methoxy-11-methyl-9,14-dioxo-6,7,9,14-tetrahydronaphthaceno[1,2-g]phthalazin-1-one] | – | > 350 °C | –
13 | COC(=O)Oc1cc2c(c(O)c1C)C(=O)c1c(OC)c3c(c(O)c1C2=O)-c1c(cc2cnn(-c4ccccc4)c(=O)c2c1O)CC3 [Compound 7, 2-Phenyl-10,15,16-trihydroxy-8-methoxy-12-methoxycarbonyloxy-11-methyl-9,14-dioxo-6,7,9,14-tetrahydronaphthaceno[1,2-g]phthalazin-1-one] | – | > 350 °C | –
14 | COc1c2c(c(O)c3c1C(=O)c1c(cc(O)c(C)c1O)C3=O)-c1c(cc3cnn(CCN)c(=O)c3c1O)CC2 [Compound 8, 2-(2-Aminoethyl)-10,12,15,16-tetrahydroxy-8-methoxy-11-methyl-9,14-dioxo-6,7,9,14-tetrahydronaphthaceno[1,2-g]phthalazin-1-one] | 780 nM | > 350 °C (dec.) | IC50 [3]: 2580 nM
15 | COc1c2c(c(OC(C)=O)c3c1C(=O)c1c(cc(OC(C)=O)c(C)c1OC(C)=O)C3=O)-c1c(cc3cnn(-c4ccccc4)c(=O)c3c1OC(C)=O)CC2 [Compound 12, 2-Phenyl-10,12,15,16-tetraacetoxy-8-methoxy-11-methyl-9,14-dioxo-6,7,9,14-tetrahydronaphthaceno[1,2-g]phthalazin-1-one] | – | 273 °C | –
